Experimental data published in the CheMixHub viscosity set.

Assay: xn = mol fraction of the nth substance listed

NCCO.O=CO + CC(C)(N)CO
viscosity [mPa·s], 100 kPa
Settings	x1 = 0.1475	x1 = 0.2287	x1 = 0.3157	x1 = 0.409	x1 = 0.5093	x1 = 0.6175	x1 = 0.7346
298.15 K	170.6	165.1	148.3	126.5	107.4	84.75	64.21
303.15 K	118.8	113	103.2	90.68	78.55	62.99	49.24
308.15 K	82.33	79.18	74.33	66.23	58.35	47.99	38.25
313.15 K	58.68	57.28	54.44	49.47	44.41	37.11	30.16
318.15 K	42.89	42.1	40.82	37.69	34.31	29.35	24.25
323.15 K	31.84	31.65	31.24	29.32	27.04	23.55	19.78

Cc1ccc(C)cc1 + CC(C)=O
307.35 K, 101.33 kPa
Settings	viscosity [mPa·s]
x2 = 0.1403	0.5
x2 = 0.4308	0.429
x2 = 0.5768	0.4
x2 = 0.6298	0.385
x2 = 0.7285	0.353
x2 = 0.9118	0.311

OCCOCCO + CC(C)=O
298.1 K, 101 kPa
Settings	viscosity [mPa·s]
x1 = 0.2	0.682
x1 = 0.4	1.669
x1 = 0.5	2.655
x1 = 0.6	4.301
x1 = 0.8	11.1

Cc1ccc(C)cc1 + CC(C)CC(C)(C)C
308.15 K, 101 kPa
Settings	viscosity [mPa·s]
x2 = 0.072	0.5266
x2 = 0.1401	0.5074
x2 = 0.2197	0.4893
x2 = 0.3074	0.4732
x2 = 0.4051	0.4595
x2 = 0.507	0.4479
x2 = 0.6185	0.44
x2 = 0.7382	0.4348
x2 = 0.8619	0.4333

O=Cc1ccccc1 + CC(C)CCO
298.1 K, 101 kPa
Settings	viscosity [mPa·s]
x1 = 0.1103	2.842
x1 = 0.202	2.39
x1 = 0.2988	2.057
x1 = 0.3333	1.959
x1 = 0.4051	1.809
x1 = 0.4839	1.67
x1 = 0.6101	1.51
x1 = 0.6944	1.44
x1 = 0.7979	1.373
x1 = 0.8987	1.34

CC(C)CCCC(C)CCCC(C)CCCCC(C)CCCC(C)CCCC(C)C (stereo unspecified) + CC(C)CO
101 kPa
Settings	viscosity [mPa·s]
298.15 K, x2 = 0.1032	22.85
308.15 K, x2 = 0.1672	13.45

CCCC[N+](CCCC)(CCCC)CCCC.[Cl-] + CC(C)C[C@H](N)C(=O)O
Settings	viscosity [mPa·s]
313.15 K, 100 kPa, x1 = 0.9	943

CC(C)CCCC(C)CCCC(C)CCCCC(C)CCCC(C)CCCC(C)C (stereo unspecified) + CC(C)O
viscosity [mPa·s], 101 kPa
Settings	x2 = 0.0621	x2 = 0.218	x2 = 0.4022
298.15 K	–	19.65	–
303.15 K	18.75	15.45	13.05

C[N+](C)(C)CCO.[Cl-] + CC(O)CO
Settings	viscosity [mPa·s]
293.15 K, 100 kPa, x1 = 0.25	89.38
293.15 K, 101 kPa, x2 = 0.8	95.09
293.15 K, 101.3 kPa, x2 = 0.7498	94.05
293.15 K, 101.3 kPa, x2 = 0.8003	80.19
293.15 K, 101.3 kPa, x2 = 0.8328	73.34
293.15 K, 101.3 kPa, x2 = 0.8567	70.57
298 K, 100 kPa, x1 = 0.333	95.5
298 K, 101.3 kPa, x1 = 0.333	70
298.15 K, 100 kPa, x1 = 0.25	68.43
298.15 K, 101.3 kPa, x2 = 0.7498	72.1
298.15 K, 101.3 kPa, x2 = 0.8003	61.49
298.15 K, 101.3 kPa, x2 = 0.8328	57.12
298.15 K, 101.3 kPa, x2 = 0.8567	55.1
298.15 K, 101.33 kPa, x2 = 0.7	36
303 K, 100 kPa, x1 = 0.333	74.2
303.15 K, 100 kPa, x1 = 0.25	53.34
303.15 K, 101 kPa, x2 = 0.8	56.64
303.15 K, 101.3 kPa, x2 = 0.7498	56.26
303.15 K, 101.3 kPa, x2 = 0.8003	47.74
303.15 K, 101.3 kPa, x2 = 0.8328	44.41
303.15 K, 101.3 kPa, x2 = 0.8567	43.01
308 K, 100 kPa, x1 = 0.333	57.6
308.15 K, 100 kPa, x1 = 0.25	42.26
308.15 K, 101.3 kPa, x2 = 0.7498	44.5
308.15 K, 101.3 kPa, x2 = 0.8003	37.47
308.15 K, 101.3 kPa, x2 = 0.8328	34.61
308.15 K, 101.3 kPa, x2 = 0.8567	33.33
313 K, 100 kPa, x1 = 0.333	46.2
313.15 K, 100 kPa, x1 = 0.25	33.93
313.15 K, 101 kPa, x2 = 0.8	36.06
313.15 K, 101.3 kPa, x2 = 0.7498	35.89
313.15 K, 101.3 kPa, x2 = 0.8003	30.4
313.15 K, 101.3 kPa, x2 = 0.8328	27.67
313.15 K, 101.3 kPa, x2 = 0.8567	26.42
318 K, 100 kPa, x1 = 0.333	37.9
318.15 K, 100 kPa, x1 = 0.25	27.71
318.15 K, 101.3 kPa, x2 = 0.7498	29.15
318.15 K, 101.3 kPa, x2 = 0.8003	24.7
318.15 K, 101.3 kPa, x2 = 0.8328	22.49
318.15 K, 101.3 kPa, x2 = 0.8567	21.11
323 K, 100 kPa, x1 = 0.333	31.8
323 K, 101.3 kPa, x1 = 0.333	19
323.15 K, 100 kPa, x1 = 0.25	22.88
323.15 K, 101 kPa, x2 = 0.8	24.26
323.15 K, 101.3 kPa, x2 = 0.7498	24.25
323.15 K, 101.3 kPa, x2 = 0.8003	20.43
323.15 K, 101.3 kPa, x2 = 0.8328	18.56
323.15 K, 101.3 kPa, x2 = 0.8567	17.41

Cc1ccc(C)cc1 + CCC(C)O
308.15 K, 101 kPa
Settings	viscosity [mPa·s]
x2 = 0.0429	0.553
x2 = 0.1028	0.562
x2 = 0.2013	0.591
x2 = 0.3192	0.645
x2 = 0.4044	0.721
x2 = 0.5085	0.792
x2 = 0.6631	0.932
x2 = 0.7494	1.111
x2 = 0.8285	1.32
x2 = 0.9012	1.61
x2 = 0.9684	1.782

CC(C)CCCC(C)CCCC(C)CCCCC(C)CCCC(C)CCCC(C)C (stereo unspecified) + CCCC
viscosity [mPa·s]
Settings	x1 = 0.161	x1 = 0.162	x1 = 0.316	x1 = 0.319	x1 = 0.555	x1 = 0.559	x1 = 0.721	x1 = 0.724
293.15 K, 101 kPa	1.06	–	3	–	9.55	–	16.5	–
293.15 K, 101.33 kPa	1.06	–	3	–	9.55	–	16.5	–
313.15 K, 101 kPa	–	0.797	–	2.04	–	5.26	–	8.16
313.15 K, 101.33 kPa	–	0.797	–	2.04	–	5.26	–	8.16

C=C(C)C(=O)OCCCCCCC + CCCCCC
viscosity [mPa·s], 101 kPa
Settings	x1 = 0.002	x1 = 0.005	x1 = 0.01	x1 = 0.02
303 K	0.2814	0.2918	0.2946	0.3052
313 K	0.2567	0.2692	0.2692	0.2801
323 K	0.2346	0.2442	0.247	0.2568
